Columns and labels:
HT-1080 = test: Modulatory profiling: Alamar Blue viability, lethal compound cotreated with death modulator (EC50, AUC); type: cell-based; parameters: AUC, modulator HT.3MA / AUC, modulator HT.ALLN / AUC HT.ATA / AUC HT.ActD / AUC HT.BHA / AUC HT.BHT / AUC HT.BocD / AUC HT.CHX / AUC HT.Co2+ / AUC HT.DPQ / AUC HT.EGTA / AUC HT.Lmim / AUC HT.NAD+ / AUC HT.Nec-1 / AUC HT.SP600125 / AUC HT.TLCK / AUC HT.U0126: unit not given beside the values; conditions: for AUC HT.ATA: HT-1080, modulator ATA; for AUC HT.ActD: HT-1080, modulator ActD; for AUC HT.BHA: HT-1080, modulator BHA; for AUC HT.BHT: HT-1080, modulator BHT; for AUC HT.BocD: HT-1080, modulator BocD; for AUC HT.CHX: HT-1080, modulator CHX; for AUC HT.Co2+: HT-1080, modulator Co2+; for AUC HT.CspA: HT-1080, modulator CspA; for AUC HT.DPQ: HT-1080, modulator DPQ; for AUC HT.EGTA: HT-1080, modulator EGTA; for AUC HT.Gd3+: HT-1080, modulator Gd3+; for AUC HT.LNAME: HT-1080, modulator LNAME; for AUC HT.Lmim: HT-1080, modulator Lmim; for AUC HT.NAD+: HT-1080, modulator NAD+; for AUC HT.NMMA: HT-1080, modulator NMMA; for HT.atoc (AUC) / HT.bCarotene (AUC) / HT.deferox (AUC) / HT.digoxin (AUC) / HT.trolox (AUC) / HT.zVAD (AUC): HT-1080; for HT.atoc (AUC): modulator atoc; for HT.bCarotene (AUC): modulator bCarotene; for HT.deferox (AUC): modulator deferox; for HT.digoxin (AUC): modulator digoxin; for HT.trolox (AUC): modulator trolox; for HT.zVAD (AUC): modulator zVAD; for AUC, modulator HT.3MA / AUC, modulator HT.ALLN: HT-1080 cells, modulatory profile value (AUC); for AUC, modulator HT.3MA: lethal compound cotreated with modulator 3MA; for AUC, modulator HT.ALLN: lethal compound cotreated with modulator ALLN; for AUC HT.BHA: reference of the scale not given here; for AUC HT.EGTA: reference of the scale not given here
BJeLR = test: as above; type: cell-based, human; parameters: AUC, modulator BJ.Gd3+ / AUC, modulator BJ.LNAME / AUC, modulator BJ.Lmin / AUC, modulator BJ.3MA / AUC, modulator BJ.ALLN / AUC, modulator BJ.Boc D / AUC, modulator BJ.CHX / AUC, modulator BJ.Co2+ / AUC, modulator BJ.Nec-1 / AUC, modulator BJ.Pepstatin / AUC, modulator BJ.TLCK / AUC, modulator BJ.atoc / AUC, modulator BJ.trolox / AUC, modulator BJ.zVAD: unit not given beside the values; conditions: BJeLR cells, modulatory profile value (AUC); for AUC, modulator BJ.3MA: lethal compound cotreated with modulator 3MA; for AUC, modulator BJ.ALLN: lethal compound cotreated with modulator ALLN; for AUC, modulator BJ.Boc D: lethal compound cotreated with modulator Boc D; for AUC, modulator BJ.CHX: lethal compound cotreated with modulator CHX; for AUC, modulator BJ.Co2+: lethal compound cotreated with modulator Co2+; for AUC, modulator BJ.DPQ: lethal compound cotreated with modulator DPQ; for AUC, modulator BJ.Gd3+: lethal compound cotreated with modulator Gd3+; for AUC, modulator BJ.LNAME: lethal compound cotreated with modulator LNAME; for AUC, modulator BJ.Lmin/NAD+: lethal compound cotreated with modulator Lmin/NAD+; for AUC, modulator BJ.Lmin: lethal compound cotreated with modulator Lmin; for AUC, modulator BJ.NAD+: lethal compound cotreated with modulator NAD+; for AUC, modulator BJ.NMMA: lethal compound cotreated with modulator NMMA; for AUC, modulator BJ.Nec-1: lethal compound cotreated with modulator Nec-1; for AUC, modulator BJ.Pepstatin: lethal compound cotreated with modulator Pepstatin; for AUC, modulator BJ.TLCK: lethal compound cotreated with modulator TLCK; for AUC, modulator BJ.atoc: lethal compound cotreated with modulator atoc; for AUC, modulator BJ.trolox: lethal compound cotreated with modulator trolox; for AUC, modulator BJ.zVAD: lethal compound cotreated with modulator zVAD; for AUC, modulator BJ.3MA: reference of the scale not given here; for AUC, modulator BJ.ALLN: reference of the scale not given here; for AUC, modulator BJ.Boc D: reference of the scale not given here; for AUC, modulator BJ.CHX: reference of the scale not given here; for AUC, modulator BJ.Co2+: reference of the scale not given here; for AUC, modulator BJ.DPQ: reference of the scale not given here; for AUC, modulator BJ.Gd3+: reference of the scale not given here; for AUC, modulator BJ.LNAME: reference of the scale not given here; for AUC, modulator BJ.NAD+: reference of the scale not given here; for AUC, modulator BJ.NMMA: reference of the scale not given here; for AUC, modulator BJ.Nec-1: reference of the scale not given here; for AUC, modulator BJ.Pepstatin: reference of the scale not given here; for AUC, modulator BJ.TLCK: reference of the scale not given here

Structure (SMILES): O=C1c2ccccc2-c2onc3ccc(Oc4ccccc4)c1c23 [CIL6]
- AUC HT.ATA (HT-1080): 0.007654
- AUC HT.ActD (HT-1080): −0.008928
- AUC HT.BHA (HT-1080): −0.007636
- AUC HT.BHT (HT-1080): −0.06114
- AUC HT.BocD (HT-1080): 0.076
- AUC HT.CHX (HT-1080): 0.161
- AUC HT.Co2+ (HT-1080): 0.04208
- AUC HT.CspA (HT-1080): −0.01275
- AUC HT.DPQ (HT-1080): 0.04323
- AUC HT.EGTA (HT-1080): 0.01026
- AUC HT.Gd3+ (HT-1080): −0.02897
- AUC HT.LNAME (HT-1080): 0.0157
- AUC HT.Lmim (HT-1080): −0.01064
- AUC HT.NAD+ (HT-1080): 0.04899
- AUC HT.NMMA (HT-1080): −0.02292
- AUC HT.Nec-1 (HT-1080; HT-1080, modulator Nec-1): 0.01299
- AUC HT.Pepstatin (HT-1080; HT-1080, modulator Pepstatin): 0.0188
- AUC HT.SP600125 (HT-1080; HT-1080, modulator SP600125): −0.01195
- AUC HT.TLCK (HT-1080; HT-1080, modulator TLCK): −0.00546
- AUC HT.U0126 (HT-1080; HT-1080, modulator U0126): 0.04846
- HT.atoc (AUC) (HT-1080): 0.1204
- HT.bCarotene (AUC) (HT-1080): −0.0173
- HT.deferox (AUC) (HT-1080): 0.02051
- HT.digoxin (AUC) (HT-1080): 0.009607
- HT.trolox (AUC) (HT-1080): −0.01697
- HT.zVAD (AUC) (HT-1080): −0.01676
- AUC, modulator HT.3MA (HT-1080): 0.06096
- AUC, modulator HT.ALLN (HT-1080): 0.04648
- AUC, modulator BJ.3MA (BJeLR): 0.1191
- AUC, modulator BJ.ALLN (BJeLR): −0.0496
- AUC, modulator BJ.Boc D (BJeLR): −0.05247
- AUC, modulator BJ.CHX (BJeLR): 0.1353
- AUC, modulator BJ.Co2+ (BJeLR): 0.06961
- AUC, modulator BJ.DPQ (BJeLR): 0.01365
- AUC, modulator BJ.Gd3+ (BJeLR): 0.006848
- AUC, modulator BJ.LNAME (BJeLR): −0.02637
- AUC, modulator BJ.Lmin/NAD+ (BJeLR): −0.0638
- AUC, modulator BJ.Lmin (BJeLR): −0.03874
- AUC, modulator BJ.NAD+ (BJeLR): 0.02657
- AUC, modulator BJ.NMMA (BJeLR): 0.006287
- AUC, modulator BJ.Nec-1 (BJeLR): 0.01237
- AUC, modulator BJ.Pepstatin (BJeLR): 0.03711
- AUC, modulator BJ.TLCK (BJeLR): −0.01536
- AUC, modulator BJ.atoc (BJeLR): 0.01482
- AUC, modulator BJ.trolox (BJeLR): −0.006777
- AUC, modulator BJ.zVAD (BJeLR): −0.003192

Structure (SMILES): O=C(/C=C/c1cccc(NC(=O)c2cccs2)c1)c1ccccc1 [CIL33]
- AUC HT.ATA (HT-1080): 0.04655
- AUC HT.ActD (HT-1080): −0.03269
- AUC HT.BHA (HT-1080): −0.02938
- AUC HT.BHT (HT-1080): −0.1089
- AUC HT.BocD (HT-1080): 0.006307
- AUC HT.CHX (HT-1080): 0.06763
- AUC HT.Co2+ (HT-1080): 0.1418
- AUC HT.CspA (HT-1080): −0.03213
- AUC HT.DPQ (HT-1080): 0.02728
- AUC HT.EGTA (HT-1080): −0.007461
- AUC HT.Gd3+ (HT-1080): −0.02182
- AUC HT.LNAME (HT-1080): 0.003047
- AUC HT.Lmim (HT-1080): −0.007068
- AUC HT.NAD+ (HT-1080): −0.0189
- AUC HT.NMMA (HT-1080): −0.002248
- HT.atoc (AUC) (HT-1080): 0.04094
- HT.bCarotene (AUC) (HT-1080): −0.01651
- HT.deferox (AUC) (HT-1080): 0.1056
- HT.digoxin (AUC) (HT-1080): −0.03413
- HT.trolox (AUC) (HT-1080): −0.05079
- HT.zVAD (AUC) (HT-1080): 0.03457
- AUC, modulator HT.3MA (HT-1080): 0.08789
- AUC, modulator HT.ALLN (HT-1080): 0.04123
- AUC, modulator BJ.3MA (BJeLR): 0.06199
- AUC, modulator BJ.ALLN (BJeLR): −0.1124
- AUC, modulator BJ.Boc D (BJeLR): −0.03229
- AUC, modulator BJ.CHX (BJeLR): 0.1026
- AUC, modulator BJ.Co2+ (BJeLR): 0.04311
- AUC, modulator BJ.DPQ (BJeLR): 0.02549
- AUC, modulator BJ.Gd3+ (BJeLR): −0.06539
- AUC, modulator BJ.LNAME (BJeLR): −0.03157
- AUC, modulator BJ.Lmin/NAD+ (BJeLR): −0.0126
- AUC, modulator BJ.Lmin (BJeLR): 0.01529
- AUC, modulator BJ.NAD+ (BJeLR): 0.05051
- AUC, modulator BJ.NMMA (BJeLR): 0.0458
- AUC, modulator BJ.Nec-1 (BJeLR): −0.08953
- AUC, modulator BJ.Pepstatin (BJeLR): 0.07672
- AUC, modulator BJ.TLCK (BJeLR): −0.1077
- AUC, modulator BJ.atoc (BJeLR): 0.0414
- AUC, modulator BJ.trolox (BJeLR): −0.05339
- AUC, modulator BJ.zVAD (BJeLR): −0.02675

Structure (SMILES): O=S1(=O)Nc2c(ccc3cccnc23)-c2ccccc21 [CIL67]
- AUC HT.ATA (HT-1080): 0.08909
- AUC HT.ActD (HT-1080): 0.06498
- AUC HT.BHA (HT-1080): −0.03558
- AUC HT.BHT (HT-1080): −0.1041
- AUC HT.BocD (HT-1080): −0.02378
- AUC HT.CHX (HT-1080): 0.1458
- AUC HT.Co2+ (HT-1080): 0.03257
- AUC HT.CspA (HT-1080): 0.01638
- AUC HT.DPQ (HT-1080): −0.01092
- AUC HT.EGTA (HT-1080): 0.1234
- AUC HT.Gd3+ (HT-1080): −0.01945
- AUC HT.LNAME (HT-1080): −0.007515
- AUC HT.Lmim (HT-1080): 0.01912
- AUC HT.NAD+ (HT-1080): −0.01795
- AUC HT.NMMA (HT-1080): −0.01349
- HT.atoc (AUC) (HT-1080): 0.05006
- HT.bCarotene (AUC) (HT-1080): 0.04657
- HT.deferox (AUC) (HT-1080): 0.1176
- HT.digoxin (AUC) (HT-1080): −0.02175
- HT.trolox (AUC) (HT-1080): −0.05687
- HT.zVAD (AUC) (HT-1080): 0.004996
- AUC, modulator BJ.3MA (BJeLR): 0.02312
- AUC, modulator BJ.ALLN (BJeLR): 0.02149
- AUC, modulator BJ.Boc D (BJeLR): 0.00578
- AUC, modulator BJ.CHX (BJeLR): 0.3083
- AUC, modulator BJ.Co2+ (BJeLR): 0.03708
- AUC, modulator BJ.DPQ (BJeLR): −0.005089
- AUC, modulator BJ.Gd3+ (BJeLR): 0.0143
- AUC, modulator BJ.LNAME (BJeLR): 0.01177
- AUC, modulator BJ.Lmin/NAD+ (BJeLR): 0.1599
- AUC, modulator BJ.Lmin (BJeLR): −0.08787
- AUC, modulator BJ.NAD+ (BJeLR): −0.07272
- AUC, modulator BJ.NMMA (BJeLR): −0.01601
- AUC, modulator BJ.Nec-1 (BJeLR): −0.02018
- AUC, modulator BJ.Pepstatin (BJeLR): 0.08703
- AUC, modulator BJ.TLCK (BJeLR): 0.06141

— patent publication US10947188B2, “Small molecule ferroptosis inducers” (THE TRUSTEES OF COLUMBIA UNIVERSITY IN THE CITY OF NEW YORK, priority 2016, dated 2021)
